Tested on: LP1 cells
Experiment: Cell viability (resazurin), LP1
Type: cell-based
Conditions: Homo sapiens, LP-1, 72 h, 3 days
Protocol: The primer sequences used were:
Gene Gene ID Forward Primer (5’-3’) Reverse primer (5’-3’)
myc NM_001354870.1 GTAGTGGAAAACCAGCC […]
crebbp NM_004380.3 TGTCACAGGGACAGGTGC […]
Cells were plated onto 96 well plates at the following densities in 90 μl volume: 3x104
LP1 cells/well or 5x10^3 LNCaP cells/well both plated same day as treatment, or 2x104
MM1S cells/well or 1.5x10^3 SH-SY5Y cells/well both plated day prior to treatment.
Compounds were added in 10 μl to give the stated concentrations with a final
concentration of 0.1 % DMSO. Following 3 days of compound treatment, resazurin
(Acros Organics, 189900010) was added at a f inal concentration of 86 μM and incubated
for the following times: MM1S 5 h, LP1 3 h, LNCaP 1 h 30 min, SH-SY5Y 6 h.
Fluorescence (excitation = 560 nm, emission = 590 nm) was measured using a
spectraMax M5 microplate reader (Molecular Devices) and cell viability was calculated
relative to DMSO treated cells on the same plate. Data was fitted using a four -parameter
dose-response curve in GraphPad Prism v. 9.5.1, where the top is fixed at 100 %. GI50
values were calculated as the concentration required to inhibit cell viability to 50 %
relative to DMSO treated cells after 3 days.
Sample digestion and clean up: Treated cells were washed in PBS and cell pellets
were then lysed in 4 % SDS/Tris-HCl, treated with High Intensity Focused Ultrasound […]

Cc1cc2c(NC(=O)c3cc(NC(=O)CCCCCCCCCCNc4cccc5c4C(=O)N(C4CCC(=O)NC4=O)C5=O)cc(-c4ccn(C)n4)c3)cccc2nn1 (stereo not shown) [dCE-2]
GI50: 1500 nM
